Data on 17 molecules can be found in patent US20230107216A1, “PANTETHEINE DERIVATIVES AND USES THEREOF” (Comet Therapeutics, Inc., priority 2018, published 2023).

Molecules are shown by their SMILES.

The first data set relates to Peripheral blood mononuclear cells co-cultured with venular endothelial cells (Sag system). The data set can be described thus: BioMAP Sag system (T-cell ligands). The settings on record: 10 uM; procedure of Example 828. In kind it is cell-based, human. Here is the method:
(§1) The BioMAP platform (BioMAP® Diversity PLUS® Panel from Eurofins) is an in vitro phenotypic profiling technology that screened the compounds of the present disclosure (hereafter indicated as test agents) in human primary cell-based systems modelling complex tissue and disease states. The BioMAP assays were performed using the Eurofin's BioMAP Technology Platform as (see references 1 to 13 in the example 824 section) to model different diseases on primary cell-based model systems. These systems consisted of either single primary cell types or co-culture cells. Adherent cell types were cultured or co-cultured in 96 or 384-well plates until confluence followed by the addition of compounds prepared in DMSO at a final concentration of ≤0.1%. In each cell-based system, primary cells from heathy donors (2-6 donors) were pooled and treated with compounds at 1 and 10 μM dose 1h prior to stimulation and remain in culture as indicated in Example 825, Example 826, Example 827, Example 828, Example 829, Example 830, Example 831, Example 832, Example 833, Example 834, Example 835, Example 836 and Example 837. For on the BioMAP® Diversity PLUS® Panel, please see the following references, which are incorporate herein.
Following the general procedure as described in Example 824, Peripheral blood mononuclear cells were co-cultured with venular endothelial cells and treated with soluble antigen (T-cell ligands) (Sag system) in the presence or absence of compounds to model autoimmune and chronic inflammation. Biomarkers read out were; MCP-1, CD38, CD40, E-selectin, CD69, IL-8, MIG, PBMC cytotoxicity, Proliferation and SRB.
For the molecule `C[C@@H](O)CC(=O)CC(=O)SCCNC(=O)CCNC(=O)[C@H](O)C(C)(C)CO` [Compound 42, (2R)-2,4-dihydroxy-N-[2-[(2-[[(5R)-5-hydroxy-3-oxohexanoyl]sulfanyl]ethyl)carbamoyl]ethyl]-3,3-dimethylbutanamide], the “% increase in Proliferation” value is recorded as not below 10%.

For `CC(C)(CO)[C@@H](O)C(=O)NCCC(=O)NCCSC(=O)[C@@H](N)Cc1ccc(O)c(O)c1` [Compound 371, (2R)—N-[2-[(2-[[(2S)-2-amino-3-(3,4-dihydroxyphenyl)propanoyl]sulfanyl]ethyl)carbamoyl]ethyl]-2,4-dihydroxy-3,3-dimethylbutanamide], the “% decrease in Proliferation” value was not below 10% and the “% increase in PBMC cytotoxicity” value is not below 10%.

In the case of `CCCCCCC(=O)SCCNC(=O)CCNC(=O)[C@H](O)C(C)(C)CO` [Compound 372, (2R)—N-(2-[[2-(heptanoylsulfanyl)ethyl]carbamoyl]ethyl)-2,4-dihydroxy-3,3-dimethylbutanamide], the “% increase in Proliferation” value is on record as not below 10%.

As for `CC(=O)SCCNC(=O)CCNC(=O)[C@H](O)C(C)(C)COC(=O)[C@@H](N)Cc1ccc(O)c(O)c1` [Compound 498, (3R)-3-[(2-[[2-(acetylsulfanyl)ethyl]carbamoyl]ethyl)carbamoyl]-3-hydroxy-2,2-dimethylpropyl (2S)-2-amino-3-(3,4-dihydroxyphenyl)propanoate], the “% decrease in Proliferation” value is listed as not below 10%.

In the next data set the test system is Venular Endothelial cells (HUVEC) (3C system). In words: BioMAP 3C system (IL-1β, TNFα, IFNγ). In kind it is cell-based, human. The settings on record: 10 uM; procedure of Example 825. Here is the method: as §1
Following the general procedure as described in Example 824, Venular Endothelial cells (HUVEC) (3C system) were treated with IL-1β, TNFα, IFNγ for 24h to model Th1 driven cardiovascular and chronic inflammation diseases in the presence or absence of the compounds. Biomarker read out were; Tissue Factor, ICAM-1, E-selectin, uPAR (CD87), IL-8, MIG, HLA-DR, proliferation and SRB (Sulfo-rhodamine i.e. staining for protein content).
`COC(=O)CCC(=O)SCCNC(=O)CCNC(=O)[C@H](OC(=O)CNC(C)=O)C(C)(C)CO` [Compound 1298, methyl 4-[(2-[3-[(2R)-2-[(2-acetamidoacetyl)oxy]-4-hydroxy-3,3-dimethylbutanamido]propanamido]ethyl)sulfanyl]-4-oxobutanoate]: the “% decrease in IL-8” value is listed as not below 10%.

As for `CC(C)(CO)[C@@H](O)C(=O)NCCC(=O)NCCSC(=O)[C@@H](N)Cc1ccc(O)c(O)c1` [Compound 371, (2R)—N-[2-[(2-[[(2S)-2-amino-3-(3,4-dihydroxyphenyl)propanoyl]sulfanyl]ethyl)carbamoyl]ethyl]-2,4-dihydroxy-3,3-dimethylbutanamide], the “% increase in Proliferation (HUVEC)” value was not below 10%.

Regarding `CCCCCCC(=O)SCCNC(=O)CCNC(=O)[C@H](O)C(C)(C)CO` [Compound 372, (2R)—N-(2-[[2-(heptanoylsulfanyl)ethyl]carbamoyl]ethyl)-2,4-dihydroxy-3,3-dimethylbutanamide], the “% increase in Proliferation (HUVEC)” value is not below 20%.

In the case of `COC(=O)CCC(=O)SCCNC(=O)CCNC(=O)[C@H](OC(=O)CN)C(C)(C)CO` [Compound 1294, methyl 4-[(2-[3-[(2R)-2-[(2-aminoacetyl)oxy]-4-hydroxy-3,3-dimethylbutanamido]propanamido]ethyl)sulfanyl]-4-oxobutanoate], the “% decrease in IL-8” value is recorded as not below 10% and the “% increase in Proliferation (HUVEC)” value is not below 20%.

For the molecule `CC(=O)OCC(C)(C)[C@@H](OC(C)=O)C(=O)NCCC(=O)NCCSC(C)=O` [Compound 1264, (1R)-3-(acetyloxy)-1-[(2-[[2-(acetylsulfanyl)ethyl]carbamoyl]ethyl)carbamoyl]-2,2-dimethylpropyl acetate], the “% increase in Proliferation (HUVEC)” value is given as not below 10%.

A further data set relates to Propionic Acidemia (PA) primary fibroblasts Tsi 6337. The data set can be described thus: Mitochondrial respiration, XFe96 Extracellular Flux Analyzer (OCR/ECAR), PA fibroblasts Tsi 6337. In kind it is cell-based. The settings on record: Homo sapiens, Fibroblast, PA Tsi 6337, assay condition A (10 mM glucose, 2 mM L-glutamine, 1 mM pyruvate, 10% FBS), read-out: Increase in Maximal Respiratory Capacity AUC. Here is the method: The effect of the compounds of the present disclosure on mitochondrial respiration was measured with a XFe96 Extracellular Flux Analyzer (Seahorse Bioscience, Agilent Technologies) and Oxygen consumption Rate (OCR) and Extracellular acidification rate (ECAR) determined.
Cell culture and treatments. Primary adherent fibroblasts were cultured in minimum essential medium (MEM) (Gibco, 25030081) supplemented with 2 mM L-Glutamine (Gibco, 25030081), 15% fetal bovine serum (FBS) (Gibco, 26400044) and 1% penicillin/streptomycin (Gibco, 5140122) at 37° C. and 5% CO2. Cells were collected for either passaging or experiment at ˜70-80% confluence. Cells were obtained by trypsinization and seeded at 20000 cells/well in cell culture microplates (Seahorse Bioscience, 101085-004) and allowed to adhere for 16 hours in culture media.
By profiling different primary cells and/or optimizing their culture media or environmental components one can select cell lines and/or conditions that are appropriate for the biological or disease model. In the present example, 24 hours prior to OCR and ECAR profiling, media was changed to Dulbecco's Modified Eagle Medium (DMEM, Agilent Seahorse 103575-100) with the appropriate supplements for the different primary cells (10 mM glucose, 2 mM L-glutamine, 1 mM pyruvate, 10% FBS; 1 mM glucose, 2 mM L-glutamine, 1 mM pyruvate, 10% FBS; 10 mM glucose, 10% FBS; 5 mM glucose 10% FBS; 1 mM glucose 10% FBS). Cells used in this example were: Propionic Acidemia (PA) (GM00371, GM03590 Coriell Institute for Medical Research, Tsi 6337, Tsi 4626, Tsi 3618 Trans-Hit Bio), Methylmalonic Acidemia (MMA) (GM01673, Coriell Institute for Medical Research, Tsi 5224 Trans-Hit Bio), Branched chain ketoacid dehydrogenase kinase (BCKDK) (GM00612, GM00649 Coriell Institute for Medical Research), Subnormal activation of pyruvate dehydrogenase complex (PDH) (GM01503 Coriell Institute for Medical Research), Very long-chain acyl-CoA dehydrogenase (VLCAD) (GM17475), Leigh Syndrome (LS) (GM03672, GM13411 Coriell Institute for Medical Research), Pyruvate Carboxylase Deficiency (PC) (GM00444 Coriell Institute for Medical Research), Glutaric Acidemia-I (GA) (GM10653), Friedreich's Ataxia (FXN) (GM04078 Coriell Institute for Medical Research, Huntington's disease (HD) (GM21756 Coriell Institute for Medical Research), Ornithine Transcarbamylase Deficiency (OTC) (GM12756 Coriell Institute for Medical Research), Kearns-Sayre Syndrome (KSS) (GM06225 Coriell Institute for Medical Research).
One hour before the assay, the cells were washed with freshly prepared unbuffered serum free-Seahorse XF Assay medium (Seahorse Bioscience, North America, USA, 103575-100) with the same supplements as for the previous 24 hour incubation.
After baseline measurements of OCR, cells were challenged with compounds of the present disclosure at different concentrations (10 to 50 μM) or vehicle (DMSO, 0.1%) and a post-compound baseline was recorded. OCR was measured after sequentially adding to each well 1 μg/ml oligomycin (inhibitor of ATP synthase Sigma-Aldrich, 753531), then maximal OCR was determined with carbonyl cyanide 4-(trifluoromethoxy) phenylhydrazone (FCCP, Sigma-Aldrich, C2920), (uncoupler of oxidative phosphorylation) and 0.5 μM of rotenone (Sigma-Aldrich, R8875) plus antimycin A (Sigma-Aldrich, A8674) (inhibitors of mitochondrial complex I and III) for determination of rotenone-antimycin insensitive respiration together with Hoechst for nuclear staining in situ when normalized to cell counts. After the analysis and nuclear staining, the XFp microplate was transferred to the Cytation 5, and the nuclear images were captured, the individual nuclei were identified and counted by BioTek Gen5 software. Data were expressed as pmol of O2 per minute and normalized by nuclear staining and baselined to pre-compound addition.
Assay conditions were as stated below.
Assay specifics on assay conditions are indicated below when readouts were normalized to cell counts. […]
Consider `C[C@H](CC(=O)SCCNC(=O)CCNC(=O)[C@H](O)C(C)(C)CO)OC(=O)CCC(=O)O` [Compound 1243, 4-{[(2R)-4-[(2-{3-[(2R)-2,4-dihydroxy-3,3-dimethylbutanamido]propanamido}ethyl)sulfanyl]-4-oxobutan-2-yl]oxy}-4-oxobutanoic acid], for which the activation at 10 µM was not below 10%.

With `COC(=O)CC[C@H](N)C(=O)SCCNC(=O)CCNC(=O)[C@H](O)C(C)(C)CO` [Compound 411], the activation at 10 µM is not below 10%.

As for `CC1(CC(=O)SCCNC(=O)CCNC(=O)[C@H](O)C(C)(C)CO)OCCO1` [Compound 1252, (R)—S-(2-(3-(2,4-dihydroxy-3,3-dimethylbutanamido)propanamido)ethyl)-2-(2-methyl-1,3-dioxolan-2-yl)ethanethioate], the activation at 10 µM is not below 10%.

Regarding `CC(=O)SCCNC(=O)CCNC(=O)[C@H](O)C(C)(C)COC(=O)CCC(=O)O` [Compound 1242, (R)-12-hydroxy-13,13-dimethyl-2,7,11,16-tetraoxo-15-oxa-3-thia-6,10-diazanonadecan-19-oic acid], the activation at 10 µM is not below 10%.

On to `CC(C)(COC(=O)CCC(=O)O)[C@@H](O)C(=O)NCCC(=O)NCCS` [Compound 1310, (R)-4-(3-hydroxy-4-((3-((2-mercaptoethyl)amino)-3-oxopropyl)amino)-2,2-dimethyl-4-oxobutoxy)-4-oxobutanoic acid], for which the activation at 10 µM is not below 10%.

Regarding `CC(C)(CO)[C@@H](OC(=O)CCC(=O)O)C(=O)NCCC(=O)NCCS` [Compound 1311, (R)-4-((4-hydroxy-1-((3-((2-mercaptoethyl)amino)-3-oxopropyl)amino)-3,3-dimethyl-1-oxobutan-2-yl)oxy)-4-oxobutanoic acid], the activation at 10 µM is not below 10%.

`CC(C)(CO)[C@@H](O)C(=O)NCCC(=O)NCCSC(=O)C1CCC(=O)N1` (stereo partly drawn) [Compound 1227, S-2-{3-[(R)-2,4-dihydroxy-3,3-dimethylbutyrylamino]propionylamino}ethyl 5-oxo-2-pyrrolidinecarbothioate]: the activation at 10 µM was not below 10%.

The same data set, now with this note: Homo sapiens, Fibroblast, PA Tsi 6337, assay condition D (1 mM glucose, 10% FBS), read-out: Increase in Maximal Respiratory Capacity AUC.
For the molecule `COC(=O)CC[C@H](N)C(=O)SCCNC(=O)CCNC(=O)[C@H](O)C(C)(C)CO` [Compound 411], the activation at 10 µM is not below 10%.

`CCC(C)C(=O)CC(=O)SCCNC(=O)CCNC(=O)[C@H](O)C(C)(C)CO` (stereo partly drawn) [Compound 1240, S-(2-(3-((R)-2,4-dihydroxy-3,3-dimethylbutanamido)propanamido)ethyl) 4-methyl-3-oxohexanethioate]: the activation at 10 µM is not below 10%.

As for `COC(=O)/C=C/C(=O)SCCNC(=O)CCNC(=O)[C@H](O)C(C)(C)COP(=O)(O)O` [Compound 73, methyl (R,E)-4-((2-(3-(2-hydroxy-3,3-dimethyl-4-(phosphonooxy)butanamido)propanamido)ethyl)thio)-4-oxobut-2-enoate], the activation at 10 µM is not below 10%.

For the molecule `COC(=O)C(C)C(=O)SCCNC(=O)CCNC(=O)[C@H](O)C(C)(C)CO` (stereo partly shown) [Compound 405], the activation at 10 µM was not below 10%.
